{
  "source": "patent US20060079575A1",
  "about": "“Gamma-butyrolactone compound and pharmaceutical composition thereof” (priority 2003, published 2006)",
  "key": {"[1]": {"system": "WI-38 (embryonic fibroblast cell line)", "assay": "MTT cytotoxicity assay, WI-38", "format": "cell-based", "settings": "24 hr"}, "[2]": {"system": "A549 (lung cancer cell line)", "assay": "MTT cytotoxicity assay, A549", "format": "cell-based, human", "settings": "24 hr", "excerpt": "(§1) MTT assay is used to test the cytotoxic effect of BS-AE, BS-ME, BS-HE, BS-CE and BS-WE on human lung cancer cell line A549. […] According to the extraction process “BS-AE→BS-MWE→BS-CE” all of the crude extracts contain tumor inhibitory components. In order to further isolate the tumor inhibitory components from Bupleurum scorzonerifolium extract, a “Chromatography” step is further employed to isolate the BS-CE.\n(§2) It is known from the experimental result of this invention, BS-AE containing the γ-butyrolactone compound and pharmaceutical composition thereof have significant growth inhibitory effect on human hepatoma, lung cancer, ovarian cancer, breast cancer, malignant glioblastoma and colorectal carcinoma cells."}, "[3]": {"system": "A549-T12 cells", "assay": "MTT assay A549-T12, 24 and 48 hrs (FIG. 10)", "format": "cell-based, human", "settings": "Paclitaxel-resistant lung cancer cell line", "procedure": "FIGS. 10A through to 10C illustrate results of MTT assays for A549-T12 cells treated with BS-AE, isochaihulactone (BS-8), and isokaerophyllin (BS-15) respectively for 24 hrs and 48 hrs;\nBesides, after BS-AE, BS-8, and BS-15 are added to Paclitaxel-resistant lung cancer cell line for 48 hours, viability ratio of tumor cells is reduced as illustrated in FIGS. 10A through to 10C. So, in view of IC50 or ED50, the cytotoxic effect of purified chaihulactone analog on the tumor cells is […] than BS-AE. […] Furthermore, a substantially low dose (1.5 μg/ml) of the compound is all that requires to induce apoptosis for the tumor cells."}, "[4]": {"system": "A549-T12 cells", "assay": "Annexin V-FLOUS/PI flow cytometry (apoptosis), A549-T12", "format": "cell-based, human", "settings": "A549-T12, 8 μg/ml, 48 hours; untreated 6.8%", "excerpt": "FIGS. 9A through to 9D are cytograms showing the extent of cell apoptosis detected using flow cytometry for Paclitaxel-resistant human lung cancer cell lines (A549-T12 cells) either untreated, treated with BS-AE, isochalihulactone (BS-8), or isokaerophyllin ([…] fluorescence intensity of tumor cells bound with Annexin V-FLOUS antibodies; and Y-axis indicates fluorescence intensity of tumor cells bound with PI antibodies);\nThe following embodiments are described with Paclitaxel-resistant tumor cell A549-T12 (passage cultured from lung cancer cell line A549 cells with low concentration of Paclitaxel) as an example to test the effect of BS-AE and its pure compounds BS-8 and BS-15 (these represent isochaihulactone and chaihulactone analogues) on A549-T12 cells. Flow cytometry, drug toxicity test, and histological sections are adopted to evaluate cytotoxic effect of the γ-butyrolactone compound and pharmaceutical composition thereof on Paclitaxel-resistant tumor cells.\nFIGS. 9A through to 9D are flow cytometry results illustrating a comparison of the change of Annexin V-FLOUS and PI for untreated group with that of the group treated with 100 nM of Paclitaxel, 30 μg/ml BS-AE, 8 μg/ml BS-8 and 8 μg/ml BS-15 to A549-T12. […]"}, "[5]": {"system": "OVCAR-3 (ovarian cancer cell line)", "assay": "MTT cytotoxicity assay, OVCAR-3", "format": "cell-based", "settings": "Homo sapiens, OVCAR-3, read-out: IC 50, OVCAR-3; 24 hr", "excerpt": "as §1, §2"}, "[6]": {"system": "telomerase", "assay": "Inhibition of telomerase activity in Paclitaxel-resistant tumor cells", "format": "cell-based, human", "settings": "Paclitaxel-resistant tumor cells (A549-T12)", "excerpt": "Furthermore, after crude Bupleurum scorzonerifolium is processed according to the above-mentioned manufacturing method, its tumor inhibitory effect is more prominent."}, "[7]": {"system": "A549 cells", "assay": "Annexin V-FLOUS/PI flow cytometry (apoptosis), A549", "format": "cell-based, human", "settings": "A549, 20 μM, cultured 48 hours; untreated 3.8%", "procedure": "FIGS. 3A through to FIG. 3C are cytograms showing the extent of cell apoptosis detected using flow cytometry for A 549 cells either untreated, treated with 20 μM of isochalihulactone, or 60 μg/ml of BS-AE and cultured for 48 hrs (wherein X-axis indicates fluorescence intensity of tumor cells bound with Annexin V-FLOUS antibodies; and Y-axis indicates fluorescence intensity of tumor cells bound with PI antibodies);\nIn the example of using cell line A549, untreated A549 cells, A549 cells treated with 20 μM of Isochaihulactone and A549 cells treated with 60 μg/ml of BS-AE are cultured 48 hours before utilizing flow cytometry to detect the staining results between Annexin V-FLOUS and PI. In FIGS. 3A through to 3C, X-axis represents the fluorescent brightness of tumor cells with antibody Annexin V-FLOUS, and Y-axis represents the fluorescent brightness of tumor cells with antibody PI."}, "[8]": {"system": "A549 cells", "assay": "Cell cycle by flow cytometry, A549", "format": "cell-based, human", "excerpt": "FIGS. 2A through to FIG. 2D illustrate the cell cycle peak change detected using flow cytometry for A549 cells treated with Bupleurum scorzonerifolium extracts: acetone extract (BS-AE), methanol extract (BS-ME) and water extract (BS-WE) isolated according to the extracting method of the invention;\nFIG. 4 is a bar chart showing cell cycle changes detected using flow cytometry for A549 cells untreated, treated with BS-AE, isochaihulactone (BS-8), and Paclitaxel;\nFurthermore, flow cytometry is employed to observe the changes in cell cycle before and after the addition of different extracts from Bupleurum scorzonerifolium to A549 cells. In FIGS. 2A through to 2D, X-axis represents chromosome numbers (2N, 4N, etc.) of tumor cells in contact with the antibody, Y-axis represents the fluorescent brightness of Fluorescein Isothiocyanate (FITC). […] This effect is most significant for BS-AE."}, "[9]": {"system": "A549-T12 (taxol resistant A549 subline)", "assay": "MTT cytotoxicity assay, A549-T12", "format": "cell-based, human", "settings": "24 hr"}, "[10]": {"system": "p21 and p53", "assay": "Western blotting of p21 and p53, A549", "format": "cell-based, human", "excerpt": "FIG. 5 is a western blot analysis diagram showing the amount of tumor suppressors: p21 and p53 expressed in A 549 cells either untreated (B), treated with DMSO (D) or BS-AE, BS-ME, BS-WE, isochaihulactone (BS-1), or chaihulactone (BS-2) for 1 day (1D) or 3 days (3D);"}, "[11]": {"system": "Hep G2 (Hepatocellular carcinoma)", "assay": "MTT cytotoxicity assay, Hep G2", "format": "cell-based", "settings": "Homo sapiens, HepG2, read-out: IC 50, HepG2; heading: IC 50, HepG2; 24 hr", "excerpt": "as §1, §2"}, "[12]": {"system": "J5 (hepatocellular carcinoma)", "assay": "MTT cytotoxicity assay, J5", "format": "cell-based", "settings": "Homo sapiens, read-out: IC 50, J 5; heading: IC 50, J 5; 24 hr", "excerpt": "as §1, §2"}, "[13]": {"system": "HT29 (colon cancer cell line)", "assay": "MTT cytotoxicity assay, HT29", "format": "cell-based, human", "settings": "24 hr", "excerpt": "as §1, §2"}, "[14]": {"system": "β-tubulin", "assay": "Western blot of soluble and particular β-tubulin, A549", "format": "cell-based, human", "settings": "A549, FIG. 7", "excerpt": "FIG. 7 is a western blot analysis diagram showing expression of soluble (S) and particular (P) form of β-tubulin in A549 cells either untreated (C), treated with BS-AE, isochaihulactone (BS-8), Paclitaxel, or Vinblastine;\n[…] is then used to analyze the change of cytoskeleton of tumor cell lines treated with Bupleurum scorzonerifolium extract. […] Then, a polymerization event is observed before and after the treatment of BS-AE."}, "[15]": {"system": "telomerase", "assay": "Telomerase activity of treated tumor cell lines", "format": "cell-based", "settings": "cell lines of human lung cancer, hepatoma, malignant glioblastoma, colorectal carcinoma", "procedure": "A prominent cytotoxic effect was shown when the γ-butyrolactone heterocyclic compound and pharmaceutical composition thereof are added to the Paclitaxel-resistant tumor cell lines, indicating Bupleurum scorzonerifolium indeed contain active components for inhibiting tumor growth. The active components for inhibiting tumor growth refer to the novel compound and pharmaceutical composition thereof having a γ-core and having a Z or E configuration for its carbon 2(5) location at the core."}, "[16]": {"system": "MCF 7 (breast cancer cell line)", "assay": "MTT cytotoxicity assay, MCF 7", "format": "cell-based", "settings": "Homo sapiens, MCF7, read-out: IC 50, MCF 7; 24 hr", "excerpt": "as §1, §2"}, "[17]": {"system": "DBTRG-05MG (glioblastoma multiforme)", "assay": "MTT cytotoxicity assay, DBTRG-05MG", "format": "cell-based", "settings": "Homo sapiens, read-out: IC 50, DBTRG-05MG, 24 hr", "excerpt": "as §1, §2"}},
  "note": "Read-outs that look alike come from different tables or passages of the source.",
  "data": [
    {"molecule": "N.N.[Cl][Pt][Cl]", "note": "[Cisplatin, cisdiammine dichloroplatinum]", "values": [
      {"measurement": "IC 50, WI 38", "setting": "[1]", "value": "21300 ± 4500", "unit": "µg/mL"},
      {"measurement": "IC 50, A549", "setting": "[2]", "value": "17200 ± 2700", "unit": "µg/mL"}
    ]},
    {"molecule": "COc1ccc(/C=C2\\C(=O)OC[C@@H]2Cc2ccc3c(c2)OCO3)cc1OC", "note": "[BS-15, Isokaerophyllin]", "values": [
      {"measurement": "viability ratio of tumor cells", "setting": "[3]", "value": "reduced"},
      {"measurement": "tumor cells coupled to Annexin V", "setting": "[4]", "value": 23.1, "unit": "%"}
    ]},
    {"molecule": "COc1cc(/C=C2\\C(=O)OC[C@@H]2Cc2ccc3c(c2)OCO3)cc(OC)c1OC", "note": "[BS-8, Isochaihulactone]", "values": [
      {"measurement": "IC50", "setting": "[5]", "value": "7.2 ± 1.2", "unit": "µg/mL"},
      {"measurement": "effective concentration for inhibiting telomerase activity", "setting": "[6]", "value": "about 1.2 μg/mL"},
      {"measurement": "tumor cells coupled to Annexin V", "setting": "[7]", "value": 32.7, "unit": "%"},
      {"measurement": "cell cycle effect", "setting": "[8]", "value": "arrest at G2/M stage"},
      {"measurement": "IC50", "setting": "[9]; Homo sapiens, A549, read-out: IC 50, A549-T12, heading: IC 50, A549-T12", "value": "1.7 ± 0.3", "unit": "µg/mL"},
      {"measurement": "expression level of tumor suppressor p21 and p53", "setting": "[10]", "value": "significant increase"},
      {"measurement": "IC50", "setting": "[11]", "value": "5.5 ± 0.5", "unit": "µg/mL"},
      {"measurement": "IC50", "setting": "[12]", "value": "3.5 ± 0.7", "unit": "µg/mL"},
      {"measurement": "viability ratio of tumor cells", "setting": "[3]", "value": "reduced"},
      {"measurement": "IC50", "setting": "[13]; Homo sapiens, HT-29, read-out: IC 50, HT 29, heading: IC 50, HT 29", "value": "5 ± 0.8", "unit": "µg/mL"},
      {"measurement": "particular form (polymerized β-microtubule)", "setting": "[14]", "value": "increases"},
      {"measurement": "soluble form (non-polymerized β-microtubule)", "setting": "[14]", "value": "significantly diminishes"},
      {"measurement": "tumor cells coupled to Annexin V", "setting": "[4]", "value": 30.6, "unit": "%"},
      {"measurement": "reduction of telomerase activity vs untreated control", "setting": "[15]", "value": 5, "unit": "times"},
      {"measurement": "IC50", "setting": "[16]", "value": "8 ± 0.8", "unit": "µg/mL"},
      {"measurement": "IC50", "setting": "[2]; Homo sapiens, A549, read-out: IC 50, A549", "value": "8 ± 0.8", "unit": "µg/mL"},
      {"measurement": "IC50", "setting": "[17]", "value": "7.5 ± 1", "unit": "µg/mL"}
    ]},
    {"molecule": "COc1cc(/C=C2/C(=O)OC[C@@H]2Cc2ccc3c(c2)OCO3)cc(OC)c1OC", "note": "[Component 3, Chaihulactone]", "values": [
      {"measurement": "expression level of tumor suppressor p21 and p53", "setting": "[10]", "value": "significant increase"},
      {"measurement": "reduction of telomerase activity vs untreated control", "setting": "[15]", "value": 5, "unit": "times"}
    ]},
    {"molecule": "paclitaxel [Taxol, reference compound]", "values": [
      {"measurement": "IC50", "setting": "[9]; Taxol in nM, read-out: IC 50, A549-T12", "value": "20 ± 2.7", "unit": "nM"},
      {"measurement": "IC50", "setting": "[13]; Taxol in nM, read-out: IC 50, HT 29", "value": "3 ± 0.5", "unit": "nM"},
      {"measurement": "IC50", "setting": "[2]; Taxol in nM, read-out: IC 50, A549", "value": "4 ± 0.6", "unit": "nM"}
    ]}
  ]
}
